Patent publication US11690828B2, “Treatment of CNS diseases with sGC stimulators” (Cyclerion Therapeutics, Inc., priority 2016, dated 2023)

What was measured:
[1] = system: rats; assay: Formalin test - score; format: in vivo, rat; details: Compound I-2 p.o. 10 mg/kg; 120 minutes after treatment
Protocol: Formalin Test. 2.5% formalin solution was injected by subplantar route into the right hind paw. Scoring of pain behavior was performed in rats for 36 minutes every 3 minutes according to the following scores:
0=normal behavior of the injected hind limb to support the body
1=slight touching of the injected paw on the floor to lightly support or not support the body
2=total withdrawal of the injected paw
3=licking, biting or shaking of the injected paw.
(§1) Testing: 120 minutes after treatment. N=4/model/test. Results are expressed for each group as a percentage of activity calculated from the mean value of the vehicle-treated animals and compared to naïve animals, control paw, or cut-off value, depending on the test.

[2] = system: rats; assay: Oxaliplatin - acetone test (reaction time); format: in vivo, rat; details: Compound I-2 p.o. 10 mg/kg; 120 minutes after treatment
Protocol: Oxaliplatin. Induction: Acute peripheral neuropathy was induced by a single intraperitoneal injection of oxaliplatin (6 mg/kg, i.p) 30 hours before testing. Acetone test: Cold allodynia was measured using the acetone test. In this test, the latency of hind paw withdrawal was measured after application of a drop of acetone (50 μL) to the plantar surface of both hind paws three times for both hind paws alternatively with intervals of approximately 2-3 min.
as §1

[3] = system: R6/2 mice hippocampal slices; assay: Synaptic transmission and plasticity (LTP) in R6/2 mice hippocampal slices; format: cell-based, mouse
Protocol: Preparation of acute mice hippocampal slices. Experiments were carried out with 11 to 12 week-old R6/2 and WT mice provided by the Jackson Laboratory (USA). Hippocampal slices (350 μm thickness) were cut with a Macllwain tissue chopper in an ice-cold oxygenated sucrose solution (Saccharose 250, Glucose 11, NaHCO3 26, KCl 2, NaH2PO4 1.2, MgCl2 7, and CaCl2 0.5 in mM). The slices were incubated 1 hour at room temperature in ACSF of the following composition: Glucose 11, NaHCO3 25, NaCl 126, KCl 3.5, NaH2PO4 1.2, MgCl2 1.3, and CaCl2 2 in mM. Then, the slices were let to recover for at least 1 h.
Slice perfusion and temperature control. During the experiments, the slices were continuously perfused with the ACSF (bubbled with 95% O2-5% CO2) at the rate of 3 mL/min with a peristaltic pump (MEA chamber volume: ˜1 mL). Complete solution exchange in the MEA chamber was achieved 20 s after the switch of solutions. The perfusion liquid was continuously pre-heated at 37° C. just before reaching the MEA chamber with a heated-perfusion cannula (PH01, MultiChannel Systems, Reutlingen, Germany). The temperature of the MEA chamber was maintained at 37±0.1° C. with a heating element located in the MEA amplifier headstage.
Input/Output (I/O) curve: from 100 to 800 μA, by 100 μA steps. The stimulus intensity was then set to a fixed value of 250 μA for the short- and long-term synaptic plasticity measurements.
Short-term plasticity properties: two pulses with a decreasing inter-stimuli interval (e.g. 300 ms, 200 ms, 100 ms, 50 ms, 25 ms) were applied. Compound application: fEPSP were recorded for 10 minutes in control conditions (to verify the baseline steadiness) followed by a 15-minute exposure to the compound (or 25 minutes in the presence of vehicle only for control slices). A second I/O protocol and paired-pulse protocol were applied, as described previously, in the continuous presence of the compound.
Long-Term Potentiation (LTP): Following a 10-minute control period (in the presence of the compound or vehicle for control slices), LTP was induced by a 10×TBS. Potentiation of synaptic transmission was then monitored for an additional 60-minute period (in the continuous presence of the compound or vehicle for control slices).

[4] = system: CREB; assay: pCREB phosphorylation in rat primary neurons; format: cell-based; details: Primary neuron, 0.5 h, 30 μM DETA-NONOate, 30 min, 95% confidence interval 0.07 nM to 4.44 nM, read-out: EC50, phosphorylation of CREB at Ser133
Protocol: Compounds. Compound I-5 was dissolved in DMSO as a 10 mM solution and stored at −20° C. To achieve desired test concentrations, stock concentrations were serially diluted into DMSO and then diluted to the appropriate concentration in assay buffer.
Rat primary neurons culture. Neurons were isolated from Sprague Dawley rat embryos on embryonic day 18 (E18). Approximately 10 embryos were obtained from each rat, and whole brains were isolated from the embryos. Hippocampus and cortex were dissected from the brains under a stereoscopic microscope using two pairs of fine tweezers. The meninges were carefully removed. After dissection, the tissues were chopped and washed gently once with 10 mL of Ca^2+ and Mg^2+ free Hank's solution (HBSS, Corning cat #21-022-CM) in a 15-mL conical tube. After washing, 5 mL of a solution of 0.25% trypsin (Invitrogen cat #15090-046) and 0.1% deoxyribonuclease I (DNase I, Sigma cat #DN-25) were added to the tissues in the tube, which were then incubated at 37° C. for 15 min. […]
Assay Conditions. […] Medium was removed and cell were lysed and assay was performed according to Cisbio protocol (phospho-CREB (Ser133) catalog #64CREPEG) and the plate was read using Envision instrument (PerkinElmer).
Data Analysis. Data were analyzed with a 4-parameter fit (log(agonist) vs. response—variable slope) using GraphPad Prism Software v.7. […]

[5] = 855 nM, R6/2 hippocampal slices

Compound | % of activity vs. vehicle, formalin test score (early phase) [1] [%] | % of activity vs. vehicle, formalin test score (late phase) [1] [%] | % of activity vs. vehicle, oxaliplatin acetone test (reaction time) [2] [%] | Potentiation in R6/2 slices compared to R6/2 control slices ([3]; 855 nM) | fEPSP amplitude (basal synaptic transmission) ([3]; 855 nM for 15 minutes, R6/2 hippocampal slices) | I/O characteristics [3, 5] | Paired-pulse properties [3, 5] | LTP: fEPSP increase at endpoint after HFS ([3]; 855 nM, R6/2 hippocampal slices, WT control 36±3%, R6/2 control 15±2%) [%] | EC50 [4] [nM]
Fc1ccccc1Cn1nc(-c2nc(C(F)(F)F)n[nH]2)c2cccnc21 [Compound I-2] | 61 | 11 | 127 |  |  |  |  |  | 
FC(F)(F)c1n[nH]c(-c2nc(Cc3cncnc3)c3ccccn23)n1 [Compound I-5] |  |  |  | significantly increased | did not modify | significantly higher | significantly increased | 40±6 | 0.55
